The values below come from patent publication US20240067693A1, “POLYPEPTIDES AND USES THEREOF” (MEDIMMUNE LIMITED, priority 2020, published 2024).

Numbered stars: 1 amine (or outer) side, 2 acyl side, 3 side chain; on linkers, the order of the positions; unused ones are H or OH. Bridge positions count the residues as written; N and C are the ends. Square brackets hold non-standard residues; d marks the D form. Side chains are listed from the residue outwards. Peptide text beside a SMILES is read from it. * marks the point of attachment. C18 diacid = O=C(O)CCCCCCCCCCCCCCCCC(=O)*; γGlu = O=C(O)[C@H](CCC(=O)[*:2])N[*:1]; Aib = CC(C)(N)C(=O)O

One may read the EC50 as the concentration giving half of the maximal effect. By half-life is commonly meant the time in which the quantity being followed falls by half. A lower half-life goes with fast loss.

Data set [1] has as its target T1, human amylin receptor (calcitonin receptor co-expressed with receptor activity modifying protein, RAMP3) (hAMYR3) (Homo sapiens, UniProt O60896+P30988).
T1 construct: expressed in transfected cells
T1 sequence (P30988 25-474): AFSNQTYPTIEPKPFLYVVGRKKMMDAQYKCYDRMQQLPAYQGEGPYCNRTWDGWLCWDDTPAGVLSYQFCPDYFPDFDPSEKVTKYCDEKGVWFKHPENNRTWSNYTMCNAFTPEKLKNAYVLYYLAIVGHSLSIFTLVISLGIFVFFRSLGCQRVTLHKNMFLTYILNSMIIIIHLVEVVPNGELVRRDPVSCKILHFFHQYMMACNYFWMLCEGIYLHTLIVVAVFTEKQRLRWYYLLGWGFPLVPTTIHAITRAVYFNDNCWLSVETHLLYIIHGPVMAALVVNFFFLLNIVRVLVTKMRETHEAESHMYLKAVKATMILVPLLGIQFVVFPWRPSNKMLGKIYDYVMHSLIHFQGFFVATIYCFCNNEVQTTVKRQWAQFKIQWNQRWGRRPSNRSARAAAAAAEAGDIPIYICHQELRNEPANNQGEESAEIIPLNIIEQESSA
T1 sequence (O60896 24-148 partner): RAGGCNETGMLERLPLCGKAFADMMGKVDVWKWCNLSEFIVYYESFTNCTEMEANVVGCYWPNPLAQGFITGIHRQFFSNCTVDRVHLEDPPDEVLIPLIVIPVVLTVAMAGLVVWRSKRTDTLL
Put plainly: cAMP production in 1321N1 cells with stable recombinant expression of human amylin receptor (hAMYR3). Type of data set: cell-based. Conditions: for Ratio (selectivity hAMYR vs hCTR, ratio of EC50 values at the two receptors): EC50 hCTR / EC50 hAMYR3; for EC50: cAMP, 1321N1 cells, assay buffer with 0.1% BSA, read-out: EC50 (pM) hAMYR3. The method in brief:
(§1)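 EC50 values come from 4-parameter logistic fits of HTRF cAMP signal, normalised to maximal calcitonin or amylin effect. Peptides were tested in duplicate for 30 min at RT in IBMX-containing (0.5 mM) BSA/HEPES buffer pH 7.4 on stable 1321N1 (human CTR, AMYR3) or HEK (rat CTR, AMYR3) lines.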
For orientation: Changes in cAMP serve as a functional read-out for many G protein-coupled receptors.

A short description of a further data set: in vivo. Conditions: male, Sprague-Dawley, rat, 20 nmol/kg.
In data set [2] the target is T2, rat calcitonin receptor (rat CTR) (Rattus norvegicus, UniProt P32214).
T2 construct: expressed in transfected cells
T2 sequence (P32214 25-516): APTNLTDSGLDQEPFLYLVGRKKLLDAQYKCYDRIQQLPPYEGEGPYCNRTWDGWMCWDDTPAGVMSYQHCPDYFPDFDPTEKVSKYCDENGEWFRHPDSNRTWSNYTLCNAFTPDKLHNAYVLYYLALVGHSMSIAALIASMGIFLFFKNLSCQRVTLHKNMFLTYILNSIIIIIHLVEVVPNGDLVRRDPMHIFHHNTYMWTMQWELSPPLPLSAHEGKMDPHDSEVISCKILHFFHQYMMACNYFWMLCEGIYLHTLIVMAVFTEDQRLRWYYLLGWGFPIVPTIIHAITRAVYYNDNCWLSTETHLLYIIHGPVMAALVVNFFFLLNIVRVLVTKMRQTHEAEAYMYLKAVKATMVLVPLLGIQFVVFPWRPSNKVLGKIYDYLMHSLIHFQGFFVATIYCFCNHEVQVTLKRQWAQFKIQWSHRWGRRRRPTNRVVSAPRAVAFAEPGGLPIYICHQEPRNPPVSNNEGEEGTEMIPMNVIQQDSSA
Kind of data set: cAMP production in HEK cells with stable recombinant expression of rat calcitonin receptor (rat CTR). Type of data set: cell-based. Conditions: assay buffer with 0.1% BSA. The procedure: (§2) The functional activities of lipidated pramlintide analogue peptides, such as cAMP production, were tested in 1321N1 cell line with stable recombinant expression of human calcitonin receptor (hCTR) or human amylin receptor (calcitonin receptor co-expressed with receptor activity modifying protein, RAMP3) (hAMYR3) or HEK cells with stable recombinant expression of rat calcitonin receptor (rat CTR) or rat amylin receptor (calcitonin receptor co-expressed with receptor activity modifying protein, RAMP3) (Rat AMYR3).
(§3) Cryopreserved cell stock was thawed rapidly in a water-bath, suspended in assay buffer (0.1% BSA (Sigma # A3059) in HBSS (Sigma # H8264) with 25 mM HEPES, pH 7.4 and containing 0.5 mM IB MX (Sigma# 17018)) and spun at 240×g for 5 minutes. Cells were re-suspended in assay buffer at a batch-dependent optimized concentration (e.g. hCTR cells at 0.125×10^5 cells/mL, hAMYR3 cells at 0.125×10^5 cells/mL, rat CTR cells at 1x10^5 cells/mL, rat AMYR3 at 2×10^5 cells/mL).
(§4) The test peptide stock was prepared in DMSO and diluted in assay buffer to reach stated concentrations and transferred in duplicates into a 384-black shallow well microtitre assay plate (Corning # 3676). Cells were added to the assay plate, incubated at room temperature for 30 minutes and the cAMP level measured using cAMP dynamic 2 HTRF kit (Cisbio, Cat # 62AM4PEJ), following the two step protocol as per manufacturer's recommendations. The plates were read on an Envision (Perkin Elmer) using excitation wavelength of 320 nm and emission wavelengths of 620nm & 665 nm.
(§5) Data was transformed to % Delta F as described in the manufacturer's guidelines and analyzed as percent activation of maximal amylin or calcitonin effect by 4-parameter logistic fit to determine EC50 values. The selectivity of a peptide to hAMYR vs hCTR is defined as a ratio of EC50 values at the two receptors.

In data set [3] the target is T3, human calcitonin receptor (hCTR) (Homo sapiens, UniProt P30988).
T3 construct: expressed in transfected cells
T3 sequence (P30988 25-474): T1 sequence (P30988 25-474)
Put plainly: cAMP production in 1321N1 cells with stable recombinant expression of human calcitonin receptor (hCTR). Type of data set: cell-based. Conditions: cAMP, 1321N1 cells, assay buffer with 0.1% BSA; read-out: EC50 (pM) hCTR. The method, boiled down: as §1

Data set [4] deals with T4, rat amylin receptor (calcitonin receptor co-expressed with receptor activity modifying protein, RAMP3) (Rat AMYR3) (Rattus norvegicus, UniProt P32214+Q9JJ73).
T4 construct: expressed in transfected cells
T4 sequence (P32214 25-516): T2 sequence (P32214 25-516)
T4 sequence (Q9JJ73 23-147 partner): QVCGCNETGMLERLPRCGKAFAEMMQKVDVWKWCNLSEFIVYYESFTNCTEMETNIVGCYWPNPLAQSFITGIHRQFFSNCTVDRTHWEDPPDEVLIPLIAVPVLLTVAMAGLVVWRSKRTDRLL
Kind of data set: cAMP production in HEK cells with stable recombinant expression of rat amylin receptor (Rat AMYR3). Type of data set: cell-based. The settings on record: assay buffer with 0.1% BSA. The procedure:
as §2, §3, §4, §5

The next data set has as its system lean rats. Kind of data set: Rat acute food intake study. Type of data set: in vivo. Conditions: lean male Sprague Dawley rats, 20 nmol/kg subcutaneously. How it is done:
Male Sprague Dawley rats were obtained from Taconic Denmark, ApS at approximately 7 weeks of age. Rats were implanted with a microchip for identification, housed 4/cage with enrichment, free access to food and water, and allowed one week acclimatisation while non-invasive characterization was performed. Rats were on a 12:12 light:dark cycle that switches at 1pm:1am. Food intake was monitored via the HM2 system (Lafayette Instrument) that allows for monitoring in a home cage. As each rat enters an access tunnel to feed, an IR beam is broken, and the implanted microchip is read. Resulting changes to food weight is then assigned to the specific animal. Social order has shown no impact to overall feeding patterns and amounts.
Rats were sorted into groups based on Day -1 body weight and 24-hour accumulated food intake (n=7 per group). On Day 0 rats were weighed, then fasted for 6 hours. Thirty (30) minutes prior to the reintroduction of food, rats were dosed subcutaneously (5 mL/kg) with 20 nmol/kg of test compound or 60 nmol/kg peptide 1 (pramlintide) diluted in an appropriate vehicle, after which food was returned, and lights went out. Automated food intake was monitored for the following 3 days, and rats were weighed once per day.
Food intake per rat was batched into 1-hour intervals and integrated into Gubra's GubraView data management system. Discrete food intake data was exported into MS Excel from which cumulative food intake data was generated. Cumulative food intake data was then transposed into GraphPad Prism (v8.0.1) for analysis of dark period feeding

Turning to `CC[C@H](C)[C@H](NC(=O)[C@@H]1CCCN1C(=O)CNC(=O)[C@H](Cc1ccccc1)NC(=O)[C@H](CC(N)=O)NC(=O)C(C)(C)NC(=O)[C@H](CO)NC(=O)[C@H](CO)NC(=O)[C@H](Cc1c[nH]cn1)NC(=O)[C@@H](NC(=O)[C@H](CC(C)C)NC(=O)[C@H](Cc1ccccc1)NC(=O)[C@H](CC(N)=O)NC(=O)[C@H](C)NC(=O)[C@H](CC(C)C)NC(=O)[C@H](CCCNC(=N)N)NC(=O)[C@H](CCC(N)=O)NC(=O)[C@@H](NC(=O)[C@H](C)NC(=O)[C@@H]1CSSC[C@H](NC(=O)[C@H](CCCCN)NC(=O)[C@@H](N)CCCCNC(=O)CC[C@H](NC(=O)CCCCCCCCCCCCCCCCC(=O)O)C(=O)O)C(=O)N[C@@H](CC(N)=O)C(=O)N[C@@H]([C@@H](C)O)C(=O)N[C@@H](C)C(=O)N[C@@H]([C@@H](C)O)C(=O)N1)[C@@H](C)O)C(C)C)C(=O)N[C@@H](CC(C)C)C(=O)N1CCC[C@H]1C(=O)N1CCC[C@H]1C(=O)N[C@H](C(=O)N[C@@H](CC(N)=O)C(=O)N[C@H](C(=O)NCC(=O)N[C@@H](CO)C(=O)N[C@@H](CC(N)=O)C(=O)N[C@H](C(=O)N[C@@H](Cc1ccc(O)cc1)C(N)=O)[C@@H](C)O)C(C)C)[C@@H](C)O` [Peptide 35, K(γE-C18diacid)K[CNTATC]ATQRLANFLVHSS(Aib)NFGPILPPTNVGSNTY-amide] (H-K([γGlu-C18 diacid])KCNTATCATQRLANFLVHSS[Aib]NFGPILPPTNVGSNTY-NH2; disulfide 3-8; N-terminus assumed), the “Ratio (selectivity hAMYR vs hCTR, ratio of EC50 values at the two receptors)” value in data set [1] stood at 55. Further, the EC50 in data set [1] was found to be 259 pM; in data set [2], 514 pM; in data set [3] it was 14200 pM; in data set [4], 5.9 pM. For the same molecule, the half-life is 5.4 h in “in vivo” (iv) and 8.1 h in “in vivo” (sc). In addition, the “Cummulative food intake (% vehicle treated intake) At 12 h” value in the data set on lean rats is given as 49.8 % vehicle treated intake. Also, in the data set on lean rats, the “Cummulative food intake (% vehicle treated intake) At 24 h” value was found to be 44.8 % vehicle treated intake. Besides, in the data set on lean rats, the “Cummulative food intake (% vehicle treated intake) At 48 h” value was 72 % vehicle treated intake.
As for `CC[C@H](C)[C@H](NC(=O)[C@@H]1CCCN1C(=O)CNC(=O)[C@H](Cc1ccccc1)NC(=O)[C@H](CC(N)=O)NC(=O)C(C)(C)NC(=O)[C@H](CO)NC(=O)[C@H](CO)NC(=O)[C@H](Cc1c[nH]cn1)NC(=O)[C@@H](NC(=O)[C@H](CC(C)C)NC(=O)[C@H](Cc1ccccc1)NC(=O)[C@H](CC(N)=O)NC(=O)[C@H](C)NC(=O)[C@H](CC(C)C)NC(=O)[C@H](CCCNC(=N)N)NC(=O)[C@H](CCC(N)=O)NC(=O)[C@@H](NC(=O)[C@H](C)NC(=O)[C@@H]1CSSC[C@H](NC(=O)[C@H](CCCCN)NC(=O)[C@@H](N)CCCCNC(=O)CC[C@H](NC(=O)CCCCCCCCCCCCCCCCC(=O)O)C(=O)O)C(=O)N[C@@H](CC(N)=O)C(=O)N[C@@H]([C@@H](C)O)C(=O)N[C@@H](C)C(=O)N[C@@H]([C@@H](C)O)C(=O)N1)[C@@H](C)O)C(C)C)C(=O)N[C@@H](CC(C)C)C(=O)N1CCC[C@H]1C(=O)N1CCC[C@H]1C(=O)N[C@H](C(=O)N[C@@H](CCC(=O)O)C(=O)N[C@H](C(=O)NCC(=O)N[C@@H](CO)C(=O)N[C@@H](CC(N)=O)C(=O)N[C@H](C(=O)N[C@@H](Cc1ccc(O)cc1)C(N)=O)[C@@H](C)O)C(C)C)[C@@H](C)O` [Peptide 41, K(γE-C18diacid)K[CNTATC]ATQRLANFLVHSS(Aib)NFGPILPPTEVGSNTY-amide] (H-K([γGlu-C18 diacid])KCNTATCATQRLANFLVHSS[Aib]NFGPILPPTEVGSNTY-NH2; disulfide 3-8; N-terminus assumed), in data set [1], the “Ratio (selectivity hAMYR vs hCTR, ratio of EC50 values at the two receptors)” value was 7. Further, the EC50 in data set [1] was 178 pM; in data set [2] it was 925 pM; in data set [3], 1180 pM; in data set [4], 8.2 pM. Further, the half-life in “in vivo” (iv) is 8.3 h; in the data set “in vivo” (sc), 10.1 h. Besides, the “Cummulative food intake (% vehicle treated intake) At 12 h” value in the data set on lean rats is recorded as 44.6 % vehicle treated intake. In addition, the “Cummulative food intake (% vehicle treated intake) At 24 h” value in the data set on lean rats came out at 38.5 % vehicle treated intake. Moreover, the “Cummulative food intake (% vehicle treated intake) At 48 h” value in the data set with lean rats was 58.8 % vehicle treated intake.
